# Assay results as given in patent publication US11414406B2, “Antagonists of the muscarinic acetylcholine receptor M4” (Vanderbilt University, priority 2018, dated 2022).
# Read-outs that look alike come from different tables or passages of the source.
# Biological target: T1, Human M4 (Homo sapiens, UniProt P08173)
# T1 construct: expressed in transfected cells
# T1 sequence (P08173 1-479): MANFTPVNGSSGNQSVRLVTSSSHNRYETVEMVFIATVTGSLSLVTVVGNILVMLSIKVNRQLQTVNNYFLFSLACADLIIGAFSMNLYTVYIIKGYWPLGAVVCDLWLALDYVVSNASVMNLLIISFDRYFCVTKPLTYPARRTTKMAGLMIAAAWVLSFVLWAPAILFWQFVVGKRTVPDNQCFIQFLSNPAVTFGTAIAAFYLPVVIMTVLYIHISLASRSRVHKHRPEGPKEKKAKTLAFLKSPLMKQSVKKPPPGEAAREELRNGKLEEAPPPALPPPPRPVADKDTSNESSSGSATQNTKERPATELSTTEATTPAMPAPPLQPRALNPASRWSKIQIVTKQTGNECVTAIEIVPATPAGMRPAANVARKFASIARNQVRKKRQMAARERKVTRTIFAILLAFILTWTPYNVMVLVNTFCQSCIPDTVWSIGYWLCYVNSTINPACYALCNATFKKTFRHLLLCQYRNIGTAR
# Experiment: mAChR M4 cell-based functional assay (calcium flux, decrease of EC80 acetylcholine response)
# Conditions: for IC50: decrease of response to EC80 acetylcholine
# Protocol: Human M4 cDNA, along with the chimeric G protein Gqi5, were transfected into Chinese hamster ovary (CHO-K1) cells purchased from the American Type Culture Collection using Lipofectamine2000. M4/Gqi5/CHO cells were grown in Ham's F-12 medium containing 10% heat-inactivated fetal bovine serum (FBS), 20 mM HEPES, 500 μg/mL G418 sulfate, and 200 μg/mL Hygromycin B.
# For high throughput measurement of agonist-evoked increases in intracellular calcium, CHO-K1 cells stably expressing muscarinic receptors were plated in growth medium lacking G418 and hygromycin at 15,000 cells/20 μL/well in Greiner 384-well black-walled, tissue culture (TC)-treated, clear-bottom plates (VWR). Cells were incubated overnight at 37° C. and 5% CO2. The next day, cells were washed using an ELX 405 (BioTek) with assay buffer; the final volume was then aspirated to 20 μL. Next, 20 μL of a 2.3 μM stock of Fluo-4/acetoxymethyl ester (Invitrogen, Carlsbad, Calif.), prepared as a 2.3 mM stock in DMSO and mixed in a 1:1 ratio with 10% (w/v) Pluronic F-127 and diluted in assay buffer, was added to the wells and the cell plates were incubated for 50 min at 37° C. and 5% CO2. Dye was removed by washing with the ELX 405 and the final volume was aspirated to 20 μL. Compound master plates were formatted in a 10 point concentration-response curve (CRC) format (1:3 dilutions) in 100% DMSO with a starting concentration of 10 or 1 mM using a BRAVO liquid handler (Agilent). Test compound CRCs were then transferred to daughter plates (240 nL) using the Echo acoustic plate reformatter (Labcyte, Sunnyvale, Calif.) and then diluted into assay buffer (40 μL) to a 2× stock using a Thermo Fisher Combi (Thermo Fisher Scientific, Waltham, Mass.).
# Calcium flux was measured using the Functional Drug Screening System (FDSS) 6000 or 7000 (Hamamatsu Corporation, Tokyo, Japan) as an increase in the fluorescent static ratio. Compounds were applied to cells (20 μL, 2×) using the automated system of the FDSS at 2 seconds into the protocol and the data were collected at 1 Hz. At 143 s, 10 μL of an EC20 concentration of the muscarinic receptor agonist acetylcholine was added (5×), followed by the addition of 12 μL of an EC80 concentration of acetylcholine at the 268 s time point (5×). Agonist activity was analyzed as a concentration-dependent increase in calcium mobilization upon compound addition. Positive allosteric modulator activity was analyzed as a concentration-dependent increase in the EC20 acetylcholine response. Antagonist activity was analyzed as a concentration-dependent decrease in the EC80 acetylcholine response; for the purposes of the tables herein, an IC50 (inhibitory concentration 50) was calculated as a concentration-dependent decrease of the response elicited by an EC80 concentration of acetylcholine. Concentration-response curves were generated using a four-parameter logistical equation in XLFit curve fitting software (HMS, Bridgewater, N.J.) for Excel (Microsoft, Redmond, Wash.) or Prism (GraphPad Software, Inc., San Diego, Calif.) or the Dotmatics software platform (Dotmatics, Bishop's Stortford, UK).
# Compounds were synthesized as described above. Activity (IC50 and Emin) was determined in the inAChR M4 cell-based functional assay as described above and the data are shown in Table 2. The compound numbers correspond to the compound numbers used in Examples 1 and 2 and Tables 1 and 2.
# [1] = M4/Gqi5/CHO-K1 cells, % ACh maximum at 30 μM, read-out: Emin (% ACh maximum at 30 μM)
# [2] = CHO-K1, read-out: Emin (% ACh maximum at 30 μM)
SMILES,remaining activity at 30 µM [1] [%],IC50 (M4/Gqi5/CHO-K1 cells) [nM],remaining activity at 30 µM [2] [%]
"Fc1ccc(F)c(-c2ccc(N[C@H]3[C@@H]4CN(Cc5ccccc5F)C[C@@H]43)nn2)c1 [Compound 33, (1R,5S,6s)-N-[6-(2,5-difluorophenyl)pyridazin-3-yl]-3-[(2-fluorophenyl)methyl]-3-azabicyclo[3.1.0]hexan-6-amine]",39,–,–
"c1cc2c(cc1-c1ccc(N[C@H]3[C@@H]4CN(CC5CCOCC5)C[C@@H]43)nn1)OCO2 [Compound 30, (1R,5S,6s)-N-[6-(1,3-benzodioxol-5-yl)pyridazin-3-yl]-3-(tetrahydropyran-4-ylmethyl)-3-azabicyclo[3.1.0]hexan-6-amine]",16,–,–
"c1ccc2cc(-c3ccc(N[C@H]4[C@@H]5CN(CC6CCOCC6)C[C@@H]54)nn3)ccc2c1 [Compound 29, (1R,5S,6s)-N-[6-(2-naphthyl)pyridazin-3-yl]-3-(tetrahydropyran-4-ylmethyl)-3-azabicyclo[3.1.0]hexan-6-amine]",15,–,–
"Clc1ccccc1-c1ccc(N[C@H]2[C@@H]3CN(CC4CCOCC4)C[C@@H]32)nn1 [Compound 11, (1S,5R,6s)-N-[6-(2-chlorophenyl)pyridazin-3-yl]-3-(tetrahydropyran-4-ylmethyl)-3-azabicyclo[3.1.0]hexan-6-amine]",11,2960,–
"Fc1ccc(Cl)c(-c2ccc(CN[C@H]3[C@@H]4CN(CC5CCCCC5)C[C@@H]43)nn2)c1 [Compound 6, (1R,5S,6s)-N-((6-(2-chloro-5-fluoro-phenyl)pyridazin-3-yl)methyl)-3-(cyclohexylmethyl)-3-azabicyclo[3.1.0]hexan-6-amine]",17.8,–,–
"Fc1ccc(CN2C[C@@H]3[C@H](C2)[C@H]3Nc2ccc(-c3cc(F)ccc3Cl)nn2)cc1 [Compound 23, (1R,5S,6s)-N-[6-(2-chloro-5-fluoro-phenyl)pyridazin-3-yl]-3-[(4-fluorophenyl)methyl]-3-azabicyclo[3.1.0]hexan-6-amine]",30,1660,–
"Cc1nn(C)cc1-c1ccc(N[C@H]2[C@@H]3CN(CCC(C)(C)C)C[C@@H]32)nn1 [Compound 1, (1R,5S,6s)-3-(3,3-dimethylbutyl)-N-[6-(1,3-dimethylpyrazol-4-yl)pyridazin-3-yl]-3-azabicyclo[3.1.0]hexan-6-amine]",–,280,4.8
"Fc1cccc(-c2ccc(N[C@H]3[C@@H]4CN(CC5CCOCC5)C[C@@H]43)nn2)c1 [Compound 9, (1R,5S,6s)-N-[6-(3-fluorophenyl)pyridazin-3-yl]-3-(tetrahydropyran-4-ylmethyl)-3-azabicyclo[3.1.0]hexan-6-amine]",25,–,–
"Fc1ccc(Cl)c(-c2ccc(N[C@H]3[C@@H]4CN(Cc5ccc6c(c5)OCO6)C[C@@H]43)nn2)c1 [Compound 25, (1R,5S,6s)-3-(1,3-benzodioxol-5-ylmethyl)-N-[6-(2-chloro-5-fluoro-phenyl)pyridazin-3-yl]-3-azabicyclo[3.1.0]hexan-6-amine]",6,889,–
"Fc1ccc(-c2ccc(N[C@H]3[C@@H]4CN(CC5CCOCC5)C[C@@H]43)nn2)c(Cl)c1 [Compound 14, (1R,5S,6s)-N-[6-(2-chloro-4-fluoro-phenyl)pyridazin-3-yl]-3-(tetrahydropyran-4-ylmethyl)-3-azabicyclo[3.1.0]hexan-6-amine]",12,–,–
"Fc1ccc(-c2ccc(N[C@H]3[C@@H]4CN(CC5CCOCC5)C[C@@H]43)nn2)c(F)c1 [Compound 32, (1R,5S,6s)-N-[6-(2,4-difluorophenyl)pyridazin-3-yl]-3-(tetrahydropyran-4-ylmethyl)-3-azabicyclo[3.1.0]hexan-6-amine]",40,–,–
"Cc1nn(C)cc1-c1ccc(CN[C@H]2[C@@H]3CN(CCC(C)(C)C)C[C@@H]32)nn1 [Compound 4, (1R,5S,6s)-N-((6-(1,3-dimethyl-1H-pyrazol-4-yl)pyridazin-3-yl)methyl)-3-(3,3-dimethylbutyl)-3-azabicyclo[3.1.0]hexan-6-amine]",–,–,36.7
"Cc1nn(C)cc1-c1ccc(N[C@H]2[C@@H]3CN(CC(C)C(C)(C)C)C[C@@H]32)nn1 (stereo partly drawn) [Compound 3, (1R,5S,6s)-N-[6-(1,3-dimethylpyrazol-4-yl)pyridazin-3-yl]-3-(2,3,3-trimethylbutyl)-3-azabicyclo[3.1.0]hexan-6-amme]",24,–,–
"Fc1ccccc1-c1ccc(N[C@H]2[C@@H]3CN(CC4CCOCC4)C[C@@H]32)nn1 [Compound 8, (1R,5S,6s)-N-[6-(2-fluorophenyl)pyridazin-3-yl]-3-(tetrahydropyran-4-ylmethyl)-3-azabicyclo[3.1.0]hexan-6-amine]",38,–,–

# Continued, in another order:
remaining activity at 30 µM [1] [%],IC50 (M4/Gqi5/CHO-K1 cells) [nM],SMILES,remaining activity at 30 µM [2] [%]
13,3760,"c1cnc2ccc(-c3ccc(N[C@H]4[C@@H]5CN(CC6CCOCC6)C[C@@H]54)nn3)cc2c1 [Compound 17, (1R,5S,6s)-N-[6-(6-quinolyl)pyridazin-3-yl]-3-(tetrahydropyran-4-ylmethyl)-3-azabicyclo[3.1.0]hexan-6-amine]",–
39,–,"CC(=O)Nc1ccc(-c2ccc(N[C@H]3[C@@H]4CN(CC5CCOCC5)C[C@@H]43)nn2)cc1 [Compound 19, N-[4-[6-[[(1R,5S,6s)-3-(tetrahydropyran-4-ylmethyl)-3-azabicyclo[3.1.0]hexan-6-yl]amino]pyridazin-3-yl]phenyl]acetamide]",–
37,–,"Fc1ccc(-c2ccc(N[C@H]3[C@@H]4CN(CC5CCOCC5)C[C@@H]43)nn2)cc1 [Compound 10, (1R,5S,6s)-N-[6-(4-fluorophenyl)pyridazin-3-yl]-3-(tetrahydropyran-4-ylmethyl)-3-azabicyclo[3.1.0]hexan-6-amine]",–
48,–,"FC(F)(F)c1ccc(-c2ccc(N[C@H]3[C@@H]4CN(CC5CCOCC5)C[C@@H]43)nn2)cn1 [Compound 20, (1R,5S,6s)-3-(tetrahydropyran-4-ylmethyl)-N-[6-[6-(trifluoromethyl)-3-pyridyl]pyridazin-3-yl]-3-azabicyclo[3.1.0]hexan-6-amine]",–
40,> 10000,"Cc1cc(CN2C[C@@H]3[C@H](C2)[C@H]3Nc2ccc(-c3ccc4nn(C)cc4c3)nn2)nn1C [Compound 38, (1R,5S,6s)-3-[(1,5-dimethylpyrazol-3-yl)methyl]-N-[6-(2-methylindazol-5-yl)pyridazin-3-yl]-3-azabicyclo[3.1.0]hexan-6-amine]",–
4,255,"CC(C)(C)CCN1C[C@@H]2[C@H](C1)[C@H]2Nc1ccc(-c2cc(F)ccc2F)nn1 [Compound 37, (1R,5S,6s)-N-[6-(2,5-difluorophenyl)pyridazin-3-yl]-3-(3,3-dimethylbutyl)-3-azabicyclo[3.1.0]hexan-6-amine]",–
29,–,"Fc1cccc(CN2C[C@@H]3[C@H](C2)[C@H]3Nc2ccc(-c3cc(F)ccc3Cl)nn2)c1 [Compound 22, (1R,5S,6s)-N-[6-(2-chloro-5-fluoro-phenyl)pyridazin-3-yl]-3-[(3-fluorophenyl)methyl]-3-azabicyclo[3.1.0]hexan-6-amine]",–
